Measured values taken from ChEMBL document CHEMBL2074197, “Molecular and functional characterization of an organic anion transporting polypeptide cloned from human liver” (Gastroenterology, 1995).

Tests used:
[1] = molecular target: T1, Solute carrier organic anion transporter family member 1A2 (Homo sapiens, UniProt P46721); assay: TP_TRANSPORTER: inhibition of BSP uptake (BSP: 10 uM, CDCA: 200 uM) in Xenopus laevis oocytes; type: functional, cell-based; parameters: scale not given: the % may be the effect or the level left; details: oocyte
T1 sequence (P46721 whole entry): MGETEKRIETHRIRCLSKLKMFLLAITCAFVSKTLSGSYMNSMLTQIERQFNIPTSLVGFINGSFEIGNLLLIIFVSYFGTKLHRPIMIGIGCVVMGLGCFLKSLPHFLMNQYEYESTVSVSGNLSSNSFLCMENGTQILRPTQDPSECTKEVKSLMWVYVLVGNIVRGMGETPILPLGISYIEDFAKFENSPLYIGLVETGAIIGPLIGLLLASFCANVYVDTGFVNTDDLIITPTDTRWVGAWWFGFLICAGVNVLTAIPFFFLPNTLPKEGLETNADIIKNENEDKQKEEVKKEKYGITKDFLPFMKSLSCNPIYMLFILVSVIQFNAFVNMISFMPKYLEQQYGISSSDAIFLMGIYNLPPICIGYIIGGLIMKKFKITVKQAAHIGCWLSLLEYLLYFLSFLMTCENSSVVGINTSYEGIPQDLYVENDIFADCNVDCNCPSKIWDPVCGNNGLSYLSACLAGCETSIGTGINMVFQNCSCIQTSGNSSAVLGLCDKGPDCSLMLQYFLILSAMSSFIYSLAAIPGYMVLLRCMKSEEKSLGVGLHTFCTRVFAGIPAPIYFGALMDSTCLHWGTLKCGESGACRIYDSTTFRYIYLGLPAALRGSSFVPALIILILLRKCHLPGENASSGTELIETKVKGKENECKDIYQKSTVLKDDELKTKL

[2] = molecular target: T1, Solute carrier organic anion transporter family member 1A2; assay: TP_TRANSPORTER: inhibition of Taurocholate uptake (Taurochorate: 10 uM, CDCA: 200 uM) in Xenopus laevis oocytes; type: functional, cell-based; parameters: scale not given: the % may be the effect or the level left; details: oocyte
[3] = molecular target: T1, Solute carrier organic anion transporter family member 1A2; assay: TP_TRANSPORTER: inhibition of BSP uptake (BSP: 10 uM, GC: 100 uM) in Xenopus laevis oocytes; type: functional, cell-based; parameters: scale not given: the % may be the effect or the level left; details: oocyte
[4] = molecular target: T2, Solute carrier organic anion transporter family member 1A2 (OATP1A2) (Homo sapiens, UniProt P46721); assay: TP_TRANSPORTER: inhibition of Taurocholate uptake (Taurochorate: 10 uM, GC: 200 uM) in Xenopus laevis oocytes; type: functional, cell-based, Oocyte; parameters: scale not given: the % may be the effect or the level left; details: Xenopus laevis oocytes expressing OATP1A2 (SLCO1A2), probe taurocholate, read-out: Activity
T2 sequence (P46721 whole entry): T1 sequence (P46721 whole entry)

[5] = molecular target: T2, Solute carrier organic anion transporter family member 1A2 (OATP1A2); assay: TP_TRANSPORTER: inhibition of BSP uptake (BSP: 10 uM, ICG: 100 uM) in Xenopus laevis oocytes; type: functional, cell-based, Oocyte; parameters: scale not given: the % may be the effect or the level left; details: Xenopus laevis oocytes expressing OATP1A2 (SLCO1A2), probe BSP (sulfobromophthalein), read-out: Activity
[6] = molecular target: T2, Solute carrier organic anion transporter family member 1A2 (OATP1A2); assay: TP_TRANSPORTER: inhibition of Taurocholate uptake (Taurochorate: 10 uM, ICG: 100 uM) in Xenopus laevis oocytes; type: functional, cell-based, Oocyte; parameters: scale not given: the % may be the effect or the level left; details: Xenopus laevis oocytes expressing OATP1A2 (SLCO1A2), probe taurocholate, read-out: Activity
[7] = molecular target: T2, Solute carrier organic anion transporter family member 1A2 (OATP1A2); assay: TP_TRANSPORTER: uptake in Xenopus laevis oocytes; type: functional, cell-based, Oocyte; details: Xenopus laevis oocytes expressing OATP1A2 (SLCO1A2)
[8] = molecular target: T2, Solute carrier organic anion transporter family member 1A2 (OATP1A2); assay: TP_TRANSPORTER: inhibition of BSP uptake (BSP: 10 uM, TCDC: 100 uM) in Xenopus laevis oocytes; type: functional, cell-based, Oocyte; parameters: scale not given: the % may be the effect or the level left; details: Xenopus laevis oocytes expressing OATP1A2 (SLCO1A2), probe BSP (sulfobromophthalein), read-out: Activity
[9] = molecular target: T2, Solute carrier organic anion transporter family member 1A2 (OATP1A2); assay: TP_TRANSPORTER: inhibition of Taurocholate uptake (Taurochorate: 10 uM, TCDC: 100 uM) in Xenopus laevis oocytes; type: functional, cell-based, Oocyte; parameters: scale not given: the % may be the effect or the level left; details: Xenopus laevis oocytes expressing OATP1A2 (SLCO1A2), probe taurocholate, read-out: Activity
[10] = molecular target: T2, Solute carrier organic anion transporter family member 1A2 (OATP1A2); assay: TP_TRANSPORTER: inhibition of BSP uptake (BSP: 10 uM, TUDC: 100 uM) in Xenopus laevis oocytes; type: functional, cell-based, Oocyte; parameters: scale not given: the % may be the effect or the level left; details: Xenopus laevis oocytes expressing OATP1A2 (SLCO1A2), probe BSP (sulfobromophthalein), read-out: Activity
[11] = molecular target: T2, Solute carrier organic anion transporter family member 1A2 (OATP1A2); assay: TP_TRANSPORTER: inhibition of Taurocholate uptake (Taurochorate: 10 uM, TUDC: 100 uM) in Xenopus laevis oocytes; type: functional, cell-based, Oocyte; parameters: scale not given: the % may be the effect or the level left; details: Xenopus laevis oocytes expressing OATP1A2 (SLCO1A2), probe taurocholate, read-out: Activity
[12] = molecular target: T2, Solute carrier organic anion transporter family member 1A2 (OATP1A2); assay: TP_TRANSPORTER: inhibition of BSP uptake (BSP: 10 uM, UDCA: 100 uM) in Xenopus laevis oocytes; type: functional, cell-based, Oocyte; parameters: scale not given: the % may be the effect or the level left; details: Xenopus laevis oocytes expressing OATP1A2 (SLCO1A2), probe BSP (sulfobromophthalein), read-out: Activity
[13] = molecular target: T1, Solute carrier organic anion transporter family member 1A2; assay: TP_TRANSPORTER: inhibition of Taurocholate uptake (Taurochorate: 10 uM, UDCA: 200 uM) in Xenopus laevis oocytes; type: functional, cell-based; parameters: scale not given: the % may be the effect or the level left; details: oocyte

C[C@H](CCC(=O)O)[C@H]1CC[C@H]2[C@@H]3[C@H](O)C[C@@H]4C[C@H](O)CC[C@]4(C)[C@H]3CC[C@]12C [CHENODIOL]
Activity [1]: 34% | Activity [2]: 15%

C[C@H](CCC(=O)NCC(=O)O)[C@H]1CC[C@H]2[C@@H]3[C@H](O)C[C@@H]4C[C@H](O)CC[C@]4(C)[C@H]3C[C@H](O)[C@]12C [GLYCOCHOLIC ACID]
Activity [3]: 81% | activity at 200 µM [4]: 24%

CC1(C)C(/C=C/C=C/C=C/C=C2\N(CCCCS(=O)(=O)O)c3ccc4ccccc4c3C2(C)C)=[N+](CCCCS(=O)(=O)[O-])c2ccc3ccccc3c21 [INDOCYANINE GREEN]
activity at 100 µM [5]: 60% | activity at 100 µM [6]: 28%

O=C1OC(c2ccc(O)c(S(=O)(=O)O)c2)(c2ccc(O)c(S(=O)(=O)O)c2)c2c(Br)c(Br)c(Br)c(Br)c21 [SULFOBROMOPHTHALEIN SODIUM]
Km [7]: 20 µM

C[C@H](CCC(=O)NCCS(=O)(=O)O)[C@H]1CC[C@H]2[C@@H]3[C@H](O)C[C@@H]4C[C@H](O)CC[C@]4(C)[C@H]3CC[C@]12C [TAUROCHENODEOXYCHOLATE]
activity at 100 µM [8]: 17% | activity at 100 µM [9]: 28%

C[C@H](CCC(=O)NCCS(=O)(=O)O)[C@H]1CC[C@H]2[C@@H]3[C@@H](O)C[C@@H]4C[C@H](O)CC[C@]4(C)[C@H]3CC[C@]12C [TAURURSODIOL]
activity at 100 µM [10]: 9% | Km [7]: 19 µM | activity at 100 µM [11]: 9%

C[C@H](CCC(=O)O)[C@H]1CC[C@H]2[C@@H]3[C@@H](O)C[C@@H]4C[C@H](O)CC[C@]4(C)[C@H]3CC[C@]12C [URSODIOL]
activity at 100 µM [12]: 57% | Activity [13]: 14%
